According to article PMC8536978 (Viruses, 2021):
Like-named read-outs stand apart in the source and are kept apart here.

Columns and labels:
[1] = tested on: HIV-1 IIIB; experiment: HIV-1 IIIB replication in PBMCs (p24 ELISA, gag and nef mRNA RT-PCR); format: cell-based; conditions: for reduction in gag mRNA / reduction in p24 / reduction in HIV-1 nef mRNA: PBMCs infected with HIV-1 IIIB; for reduction in gag mRNA / reduction in HIV-1 nef mRNA: real-time RT-PCR; for reduction in p24: p24 ELISA
[2] = tested on: PBMCs; experiment: Trypan blue exclusion viability of HIV-1 IIIB infected PBMCs; format: cell-based
[3] = tested on: HIV-1 reverse transcription; experiment: HIV-1 reverse transcription, early and late LTR DNA products by real-time PCR; format: cell-based; conditions: HIV-1 DNA 6 h post infection
[4] = tested on: TAR RNA; design: method as in earlier work; conditions: cited from earlier work
[5] = tested on: HIV-1-LUC-G (VSVG pseudotyped HIV-1 expressing luciferase); experiment: microbe, parasite or virus in culture; format: cell-based; conditions: for IC50: read-out: One round HIV-1 infection IC50
[6] = MTT cell proliferation/viability assay; format: cell-based; conditions: human, CEM T cells, 1-100 μM
[7] = tested on: HIV-1 LTR + Tat; format: cell-based; conditions: Human immunodeficiency virus 1, HEK-293T, 24 h, read-out: HIV-1 LTR + Tat (Tat-induced transcription) IC50
[8] = tested on: HIV-1 IIIB; experiment: HIV-1 IIIB replication in CEM T cells (p24 ELISA, gag mRNA RT-PCR); format: cell-based; conditions: CEM T cells infected with HIV-1 IIIB; for reduction in p24 levels: p24 ELISA; for reduction of HIV-1 gag mRNA: real-time RT-PCR
[9] = target: Tat–CDK9 interaction (UniProt P04608+P50750); experiment: Co-immunoprecipitation of CDK9 with Flag-Tat from 293T cells; format: cell-based; conditions: 20 μM, 24 h
Sequence of Tat–CDK9 interaction (P04608 whole entry): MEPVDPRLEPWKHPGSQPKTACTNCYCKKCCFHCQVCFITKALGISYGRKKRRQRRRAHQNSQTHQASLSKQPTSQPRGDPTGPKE
Sequence of Tat–CDK9 interaction (P50750 whole entry): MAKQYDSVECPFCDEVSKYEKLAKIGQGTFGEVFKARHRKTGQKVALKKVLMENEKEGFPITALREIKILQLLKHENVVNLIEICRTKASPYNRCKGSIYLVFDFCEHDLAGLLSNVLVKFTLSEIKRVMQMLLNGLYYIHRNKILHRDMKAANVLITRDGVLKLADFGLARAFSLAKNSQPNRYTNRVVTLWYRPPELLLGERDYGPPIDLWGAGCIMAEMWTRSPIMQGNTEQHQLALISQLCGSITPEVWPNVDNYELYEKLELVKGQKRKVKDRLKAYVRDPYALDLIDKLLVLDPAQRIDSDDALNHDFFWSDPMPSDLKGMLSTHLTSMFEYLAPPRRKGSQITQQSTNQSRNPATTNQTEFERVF

[10] = target: Tat–cyclin T1 interaction (UniProt O60563+P04608); experiment: Co-immunoprecipitation of cyclin T1 with Flag-Tat from 293T cells; format: cell-based; conditions: 24 h; for reduction of cyclin T1 associated with Tat: 20 μM
Sequence of Tat–cyclin T1 interaction (P04608 whole entry): as the sequence (P04608 whole entry) above
Sequence of Tat–cyclin T1 interaction (O60563 whole entry): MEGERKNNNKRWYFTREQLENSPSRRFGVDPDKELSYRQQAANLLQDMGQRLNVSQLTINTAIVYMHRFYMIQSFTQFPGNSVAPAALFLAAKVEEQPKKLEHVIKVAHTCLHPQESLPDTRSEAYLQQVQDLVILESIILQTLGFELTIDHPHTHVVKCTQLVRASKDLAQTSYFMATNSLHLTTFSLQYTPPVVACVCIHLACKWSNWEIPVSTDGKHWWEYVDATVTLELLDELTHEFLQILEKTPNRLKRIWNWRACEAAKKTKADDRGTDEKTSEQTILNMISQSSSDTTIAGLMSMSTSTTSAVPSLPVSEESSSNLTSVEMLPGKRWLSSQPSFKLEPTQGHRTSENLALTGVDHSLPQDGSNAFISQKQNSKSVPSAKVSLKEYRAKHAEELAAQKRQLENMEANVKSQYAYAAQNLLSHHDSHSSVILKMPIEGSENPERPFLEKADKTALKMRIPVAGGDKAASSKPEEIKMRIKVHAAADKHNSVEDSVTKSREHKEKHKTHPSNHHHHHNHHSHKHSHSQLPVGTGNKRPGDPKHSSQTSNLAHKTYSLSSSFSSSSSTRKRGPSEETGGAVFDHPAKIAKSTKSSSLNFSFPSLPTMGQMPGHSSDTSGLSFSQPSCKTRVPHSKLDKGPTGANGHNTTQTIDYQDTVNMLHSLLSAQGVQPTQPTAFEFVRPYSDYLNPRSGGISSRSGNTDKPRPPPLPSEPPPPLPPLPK

[11] = tested on: luciferase translation; experiment: In vitro translation of luciferase RNA in rabbit reticulocyte lysate; format: biochemical; conditions: 30 μM, 90 min
[12] = tested on: HIV-1 LTR; experiment: Basal HIV-1 transcription, HIV-1 LTR-luciferase reporter in 293T cells; format: cell-based; conditions: HIV-1 LTR-luciferase reporter alone, 24 h treatment
[13] = tested on: Tat–TAR RNA interaction; experiment: Tat–TAR RNA interaction pull-down assay; format: binding, HIV-1; conditions: 10 µM compound, Flag-Tat lysate, biotinylated TAR RNA on beads
[14] = Human immunodeficiency virus 1, T-cell

Row | Compound | reduction in gag mRNA [1] | Luciferase (%, relative to DMSO control) [5] [%] | IC50 [5, 14] [µM] | IC50 [5] [µM] | EC50 at 24 h [6] [µM] | IC50 [7] [µM] | reduction in p24 levels [8] [fold] | reduction of HIV-1 gag mRNA [8] [fold] | reduction in p24 [1] | reduction in HIV-1 nef mRNA [1] | reduction in CDK9 associated with Tat [9] | also measured
1 | Cc1cn([C@H]2C[C@H](N=[N+]=[N-])[C@@H](CO)O2)c(=O)[nH]c1=O [AZT, azidothymidine] | strongly inhibited HIV-1 | – | – | – | – | – | – | – | – | – | – | reduction of PBMCs viability ([2]; human, 48 h): 29%; reduction of HIV-1 early LTR products [3]: 1.8 fold; reduction of HIV-1 late LTR products [3]: 63 fold
2 | CC(=O)c1ccc2c(c1)N(CCCN(C)C)c1ccccc1S2 [acetylpromazine] | – | – | – | – | – | – | – | – | – | – | – | affinity of binding to TAR RNA [4]: high affinity (nanomolar)
3 | O=C1OCCC1Sc1nnc(-c2sc3ccccc3c2Cl)o1 (centres unmarked) [T5628834] | – | 28.71 | 3.46 | 3.7 | > 100 | 20 | 1.26 | 1.6 | 3.2 fold | no effect | 4 fold | reduction of cyclin T1 associated with Tat [10]: 1.6 fold
4 | Cc1nnc(C(=O)NC(C)(C)c2nc(C(=O)NCc3ccc(F)cc3)c(O)c(=O)n2C)o1 [raltegravir, reference compound] | strongly inhibited HIV-1 | – | – | – | – | – | – | – | – | – | – | reduction of PBMCs viability ([2]; HIV-1 IIIB infected PBMCs, trypan blue exclusion): 18%
5 | C[C@@H]1C[C@@H]([C@H](O)CC2CC(=O)NC(=O)C2)C(=O)[C@@H](C)C1 [cycloheximide, reference compound] | – | – | – | – | – | – | – | – | – | – | – | reduction in luciferase translation [11]: completely blocked translation
6 | O=C(O)COc1ccc(/C=C/C(=O)c2ccc3c(c2)OCO3)cc1 [T6780107] | No significant effect | 18.24 | 2.97 | 3.7 | > 100 | 3.5 | 2.2 | 5.5 | No significant effect | no effect | no effect | IC50 [12]: 4.63 µM; reduction of cyclin T1 associated with Tat [10]: no significant effect
7 | Nc1ccc2oc(-c3cc(F)c(F)cc3Cl)nc2c1 [T0516-4834] | 2.5 fold | 37.74 | 0.2 | 0.3 | > 100 | 2 | 4 | 27 | 4 fold | 10 fold | 1.4 fold | HIV-1 inhibition ([1]; HIV-1 IIIB infected PBMCs, 10 µM): ~ 10 fold; reduction in luciferase translation [11]: ~ 30%; inhibition of Tat binding to TAR RNA [13]: 2.5 fold; inhibition at 20 µM ([10]; HEK-293T, read-out: reduction of cyclin T1 associated with Tat): < 20%
